Holding throughout (test): cell-based
In one assay the target is T1, TraR (Agrobacterium tumefaciens, UniProt P33905).
T1 construct: These strains lack their AHL synthase (I) genes, but retain their native R genes; endogenous in cells; host or cells: A. tumefaciens WCF47 (Δ-traI) with PtraI-lacZ plasmid pCF372
The note with it: for A. tumefaciens-TraR Activation [%]: 10 μM ligand; for A. tumefaciens-TraR Activation [%] / A. tumefaciens-TraR Inhibition [%] / inhibition at 10 µM: A. tumefaciens WCF47 (pCF372), normalized to OOHL; for A. tumefaciens-TraR Inhibition [%]: 10 μM synthetic ligand against 100 nM OOHL; for activation at 10 µM: read-out: A. tumefaciens-TraR Activation [%]; for inhibition at 10 µM: read-out: A. tumefaciens-TraR Inhibition [%], 10 μM synthetic ligand against 100 nM OOHL.

A further assay addresses T2, LuxR (Aliivibrio fischeri, UniProt P35327).
T2 construct: a Δ-luxI derivative of V. fischeri ES114, in which the native lux operon behaves as the bioluminescent reporter; endogenous in cells; host or cells: V. fischeri ES114 (Δ-luxI)
Details: species or system Vibrio fischeri. The note with it: for activation at 200 µM: read-out: V. fischeri-LuxR Activation [%], 200 μM ligand; for activation at 200 µM / V. fischeri-LuxR Activation [%]: normalized to OHHL; for V. fischeri-LuxR Activation [%]: 200 μM ligand. The method, boiled down: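 Whole-cell luminescence reporter in V. fischeri ES114 (WT, Δ-luxI or Δ-luxR) or E. coli, overnight cultures diluted 1:10 and grown with compound at RT (E. coli 30° C) to OD600 0.35-0.4 (4-6 h). Luminescence normalized to cell density, triplicates; EC50/IC50 from sigmoidal fit.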

The target in the next assay is T3, LasR (Pseudomonas aeruginosa, UniProt P25084).
T3 construct: expressed in transfected cells; host or cells: E. coli DH5α (pJN105L pSC11), arabinose-induced
The assay is classed as cell-based. The settings on record: for E. coli-LasR Inhibition [%]: 5 μM synthetic ligand against 7.5 nM OdDHL; for E. coli-LasR Inhibition [%] / inhibition at 5 µM: E. coli DH5α (pJN105L pSC11), normalized to OdDHL; for inhibition at 5 µM: read-out: E. coli-LasR Inhibition [%], 5 μM synthetic ligand against 7.5 nM OdDHL. The method, boiled down: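 E. coli DH5α carrying pJN105L/pSC11 grown to OD600 0.3, LasR expression induced with arabinose (4 mg/mL), then incubated with AHLs at 37 °C to OD600 0.45. LasR activity read by β-galactosidase reporter assay; IC50/EC50 from sigmoidal dose-response fits.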

The mark [1] stands for this setting: determined against 7.5 nM OdDHL, read-out: LasR IC50.

Like-named read-outs stand apart in the source and are kept apart here.

T1 sequence (P33905 whole entry): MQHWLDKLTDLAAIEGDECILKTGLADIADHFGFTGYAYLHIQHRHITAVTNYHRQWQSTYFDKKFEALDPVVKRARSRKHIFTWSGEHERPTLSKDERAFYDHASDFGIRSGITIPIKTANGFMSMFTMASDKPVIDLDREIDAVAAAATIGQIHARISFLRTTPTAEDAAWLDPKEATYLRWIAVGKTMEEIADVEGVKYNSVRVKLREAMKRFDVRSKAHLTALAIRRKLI
T3 sequence (P25084 whole entry): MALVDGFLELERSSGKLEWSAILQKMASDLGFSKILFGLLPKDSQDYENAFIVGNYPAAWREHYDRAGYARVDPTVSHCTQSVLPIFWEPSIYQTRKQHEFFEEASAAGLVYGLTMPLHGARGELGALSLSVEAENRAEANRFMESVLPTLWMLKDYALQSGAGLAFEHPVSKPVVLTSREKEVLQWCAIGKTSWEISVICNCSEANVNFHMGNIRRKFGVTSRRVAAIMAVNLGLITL
T2 sequence (P35327 whole entry): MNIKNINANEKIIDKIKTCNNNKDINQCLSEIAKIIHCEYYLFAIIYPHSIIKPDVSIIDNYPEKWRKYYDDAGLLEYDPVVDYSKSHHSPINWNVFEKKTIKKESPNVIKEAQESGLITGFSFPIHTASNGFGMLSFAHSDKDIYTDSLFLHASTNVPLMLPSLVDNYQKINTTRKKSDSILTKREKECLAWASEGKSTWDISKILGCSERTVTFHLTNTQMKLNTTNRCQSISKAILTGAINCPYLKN

With 3-nitro PHL [B17], at TraR, the “A. tumefaciens-TraR Activation [%]” value came to 0% and the “A. tumefaciens-TraR Inhibition [%]” value is 46%. The EC50 at LuxR (V. fischeri ES114 (Δ-luxI), read-out: LuxR EC50) is 0.35 µM. The “luminescence induced higher than native ligand OHHL” value on LuxR (primary agonism assay, 200 μM, same concentration as OHHL) is 29%. Moreover, the “LasR: concentration at which the compound elicits its maximal inhibition (value in parentheses)” value at LasR (against 7.5 nM OdDHL, dose response curve did not reach 100% inhibition) turned out to be 2.0 µM. Moreover, the IC50 at LasR (setting [1]) amounted to 0.61 µM.

In the case of `O=C(Cc1ccc(Br)cc1)N[C@H]1CCOC1=O` [A17, 4-bromo-phenylacetanoyl HL, reference compound], at TraR, the 50% inhibitory concentration (IC50) came out at 4.73 µM, the “A. tumefaciens-TraR Inhibition [%]” value stood at 88% and the activation at 10 µM was determined as 1%. On LuxR (V. fischeri ES114 (Δ-luxI)), the activation at 200 µM turned out to be 3%. In addition, on LasR, 3.89 µM corresponded to half-maximal inhibition (IC50) and the “E. coli-LasR Inhibition [%]” value is 28%.

`O=C(CCCc1c[nH]c2ccccc12)N[C@H]1CCOC1=O` [A18, indole AHL, reference compound]: at TraR, the “A. tumefaciens-TraR Activation [%]” value is listed as 0% and the “A. tumefaciens-TraR Inhibition [%]” value was found to be 35%. In addition, the “V. fischeri-LuxR Activation [%]” value at LuxR (V. fischeri ES114 (Δ-luxI)) is recorded as 3%. The “E. coli-LasR Inhibition [%]” value on LasR amounted to 36%. For the same molecule, the IC50 at LasR (setting [1]) stood at 8.38 µM.

For the molecule `O=C(Cc1ccc(-c2ccccc2)cc1)NC1CCOC1=O` (stereo not shown) [B21, 4-phenyl PHL], at TraR, the activation at 10 µM was 0% and the inhibition at 10 µM was around 70%. Moreover, the activation at 200 µM at LuxR (V. fischeri ES114 (Δ-luxI)) was 7%. For the same molecule, the inhibition at 5 µM on LasR was 20%.

Regarding `O=C(Cc1ccc(-c2ccccc2)cc1)N[C@H]1CCOC1=O` [C18, 4-phenyl PHL], the “Activation (%)” value at TraR (A. tumefaciens-TraR, Library C primary agonism screen) stood at 0%; on LuxR (V. fischeri-LuxR, Library C primary agonism screen) it was 7%. On TraR (A. tumefaciens-TraR, Library C primary antagonism screen), the “Inhibition (%)” value stood at 67%. In addition, the activation at 10 µM at TraR came out at 0%. Besides, the inhibition at 10 µM at TraR was around 70%. On LuxR (V. fischeri ES114 (Δ-luxI)), the activation at 200 µM came out at 7%. Further, the inhibition at 5 µM on LasR is 20%.

Regarding `O=C(Cc1ccc(Br)cc1)N[C@H]1CCOC1=O` [compound 8, N-(4-bromo-phenylacetanoyl)-L-homoserine lactone, reference compound], on TraR, the “A. tumefaciens-TraR Activation [%]” value came to 1% and the inhibition at 10 µM was around 90%. In addition, the half-maximal inhibitory concentration (IC50) at TraR (read-out: TraR IC50, determined against 100 nM OOHL) stood at 4.73 µM. Moreover, the “V. fischeri-LuxR Activation [%]” value at LuxR (V. fischeri ES114 (Δ-luxI)) is listed as 3%. In addition, the inhibition at 5 µM on LasR is around 25%. In addition, the IC50 at LasR (read-out: LasR IC50, determined against 7.5 nM OdDHL) was 3.89 µM.

What is called EC50 is the concentration needed to bring the measured effect to its halfway point. Usually IC50 stands for the midpoint of a concentration-inhibition curve. As usually defined, the inhibition is the change of the read-out against control, counted positive when it falls.

The values above are taken from patent US7910622B2, “Modulation of bacterial quorum sensing with synthetic ligands” (Wisconsin Alumni Research Foundation, priority 2007, dated 2011).
